Laboratory results: ChEMBL document CHEMBL3992501, “Synthesis and biological evaluation of salinomycin triazole analogues as anticancer agents” (Eur J Med Chem, 2017)

Key:
MDA-MB-231 = test: Antiproliferative activity against human MDA-MB-231 cells after 48 hrs by MTT assay; assay type: functional, cell-based; conditions: MDA-MB-231, 48 h
MCF7 = test: Antiproliferative activity against human MCF7 cells after 48 hrs by MTT assay; assay type: functional, cell-based; conditions: MCF7, 48 h

Question: With `CC[C@@H](C(=O)[C@@H](C)[C@@H](O)[C@H](C)[C@@H]1O[C@@H]([C@@H](CC)C(=O)O)CC[C@@H]1C)[C@H]1O[C@]2(C=C[C@@H](OC(=O)Cn3cc(CCCC(=O)O)nn3)[C@]3(CC[C@@](C)([C@H]4CC[C@](O)(CC)[C@H](C)O4)O3)O2)[C@H](C)C[C@@H]1C` as the compound, how does the IC50 (MDA-MB-231) read?
Answer: The IC50 was 1.94 µM.

Question: What about the IC50 (MCF7) of the same compound?
Answer: The IC50 was 3.66 µM.

Question: With `CC[C@@H](C(=O)[C@@H](C)[C@@H](O)[C@H](C)[C@@H]1O[C@@H]([C@@H](CC)C(=O)OCc2cn(CC(=O)O)nn2)CC[C@@H]1C)[C@H]1O[C@]2(C=C[C@@H](O)[C@]3(CC[C@@](C)([C@H]4CC[C@](O)(CC)[C@H](C)O4)O3)O2)[C@H](C)C[C@@H]1C` as the compound, how does the IC50 (MDA-MB-231) read?
Answer: Its IC50 is greater than 100 µM.

Question: And the IC50 (MCF7)?
Answer: The IC50 was 13.7 µM.

Question: Which IC50 (MDA-MB-231) does the source give for `CC[C@@H](C(=O)[C@@H](C)[C@@H](O)[C@H](C)[C@@H]1O[C@@H]([C@@H](CC)C(=O)O)CC[C@@H]1C)[C@H]1O[C@]2(C=C[C@@H](OC(=O)Cn3cc(C(=O)O)nn3)[C@]3(CC[C@@](C)([C@H]4CC[C@](O)(CC)[C@H](C)O4)O3)O2)[C@H](C)C[C@@H]1C` here?
Answer: The IC50 was 6.48 µM.

Question: What about the IC50 (MCF7) of the same compound?
Answer: The IC50 was 1.86 µM.

Question: Which IC50 (MDA-MB-231) does the source give for `CC[C@@H](C(=O)[C@@H](C)[C@@H](O)[C@H](C)[C@@H]1O[C@@H]([C@@H](CC)C(=O)O)CC[C@@H]1C)[C@H]1O[C@]2(C=C[C@@H](OC(=O)Cn3cc(-c4cccc(N)c4)nn3)[C@]3(CC[C@@](C)([C@H]4CC[C@](O)(CC)[C@H](C)O4)O3)O2)[C@H](C)C[C@@H]1C` here?
Answer: Its IC50 is 3.33 µM.

Question: What about the IC50 (MCF7) of the same compound?
Answer: The IC50 was 1.65 µM.

Question: For `CC[C@@H](C(=O)[C@@H](C)[C@@H](O)[C@H](C)[C@@H]1O[C@@H]([C@@H](CC)C(=O)O)CC[C@@H]1C)[C@H]1O[C@]2(C=C[C@@H](O)[C@]3(CC[C@@](C)([C@H]4CC[C@](O)(CC)[C@H](C)O4)O3)O2)[C@H](C)C[C@@H]1C` [SALINOMYCIN], which IC50 (MDA-MB-231) is on record?
Answer: The IC50 was 6.42 µM.

Question: What about the IC50 (MCF7) of the same compound?
Answer: Its IC50 is 2.98 µM.

Question: `CC[C@@H](C(=O)[C@@H](C)[C@@H](O)[C@H](C)[C@@H]1O[C@@H]([C@@H](CC)C(=O)OCc2cn(CCCCCCCCCCC(=O)O)nn2)CC[C@@H]1C)[C@H]1O[C@]2(C=C[C@@H](O)[C@]3(CC[C@@](C)([C@H]4CC[C@](O)(CC)[C@H](C)O4)O3)O2)[C@H](C)C[C@@H]1C` was tested. Which IC50 (MDA-MB-231) did it give?
Answer: Its IC50 is 4.31 µM.

Question: What about the IC50 (MCF7) of the same compound?
Answer: The IC50 was 3.64 µM.

Question: Which results are given for `CC[C@@H](C(=O)[C@@H](C)[C@@H](O)[C@H](C)[C@@H]1O[C@@H]([C@@H](CC)C(=O)OCc2cn(CCC(=O)O)nn2)CC[C@@H]1C)[C@H]1O[C@]2(C=C[C@@H](O)[C@]3(CC[C@@](C)([C@H]4CC[C@](O)(CC)[C@H](C)O4)O3)O2)[C@H](C)C[C@@H]1C`?
Answer: IC50 (MDA-MB-231): 87.4 µM; IC50 (MCF7): 37.3 µM

Question: Which results are given for `CC[C@@H](C(=O)[C@@H](C)[C@@H](O)[C@H](C)[C@@H]1O[C@@H]([C@@H](CC)C(=O)O)CC[C@@H]1C)[C@H]1O[C@]2(C=C[C@@H](OC(=O)CCl)[C@]3(CC[C@@](C)([C@H]4CC[C@](O)(CC)[C@H](C)O4)O3)O2)[C@H](C)C[C@@H]1C`?
Answer: IC50 (MDA-MB-231): 5.83 µM; IC50 (MCF7): 1.88 µM

Question: With `CC[C@@H](C(=O)[C@@H](C)[C@@H](O)[C@H](C)[C@@H]1O[C@@H]([C@@H](CC)C(=O)OCc2cn(CCCCC(=O)O)nn2)CC[C@@H]1C)[C@H]1O[C@]2(C=C[C@@H](O)[C@]3(CC[C@@](C)([C@H]4CC[C@](O)(CC)[C@H](C)O4)O3)O2)[C@H](C)C[C@@H]1C` as the compound, how does the IC50 (MDA-MB-231) read?
Answer: Its IC50 is 26.2 µM.

Question: What about the IC50 (MCF7) of the same compound?
Answer: The IC50 was 19.9 µM.

Question: Which results are given for `CC[C@@H](C(=O)[C@@H](C)[C@@H](O)[C@H](C)[C@@H]1O[C@@H]([C@@H](CC)C(=O)O)CC[C@@H]1C)[C@H]1O[C@]2(C=C[C@@H](OC(=O)Cn3cc(COCc4cn(CC(=O)O[C@@H]5C=C[C@]6(O[C@H]([C@@H](CC)C(=O)[C@@H](C)[C@@H](O)[C@H](C)[C@@H]7O[C@@H]([C@@H](CC)C(=O)O)CC[C@@H]7C)[C@@H](C)C[C@H]6C)O[C@@]56CC[C@@](C)([C@H]5CC[C@](O)(CC)[C@H](C)O5)O6)nn4)nn3)[C@]3(CC[C@@](C)([C@H]4CC[C@](O)(CC)[C@H](C)O4)O3)O2)[C@H](C)C[C@@H]1C`?
Answer: IC50 (MDA-MB-231): 4.66 µM; IC50 (MCF7): 0.74 µM

Question: `CC[C@@H](C(=O)[C@@H](C)[C@@H](O)[C@H](C)[C@@H]1O[C@@H]([C@@H](CC)C(=O)OCc2cn(CCCCCC(=O)O)nn2)CC[C@@H]1C)[C@H]1O[C@]2(C=C[C@@H](O)[C@]3(CC[C@@](C)([C@H]4CC[C@](O)(CC)[C@H](C)O4)O3)O2)[C@H](C)C[C@@H]1C` was tested. Which IC50 (MDA-MB-231) did it give?
Answer: The IC50 was 44.1 µM.

Question: What about the IC50 (MCF7) of the same compound?
Answer: The IC50 was 36.3 µM.

Question: Which results are given for `CC[C@@H](C(=O)[C@@H](C)[C@@H](O)[C@H](C)[C@@H]1O[C@@H]([C@@H](CC)C(=O)O)CC[C@@H]1C)[C@H]1O[C@]2(C=C[C@@H](OC(=O)Cn3cc(CCO)nn3)[C@]3(CC[C@@](C)([C@H]4CC[C@](O)(CC)[C@H](C)O4)O3)O2)[C@H](C)C[C@@H]1C`?
Answer: IC50 (MDA-MB-231): 4.72 µM; IC50 (MCF7): 2.12 µM

Question: What does the source list for `CC[C@@H](C(=O)[C@@H](C)[C@@H](O)[C@H](C)[C@@H]1O[C@@H]([C@@H](CC)C(=O)OCc2cn(CCCCCCC(=O)O)nn2)CC[C@@H]1C)[C@H]1O[C@]2(C=C[C@@H](O)[C@]3(CC[C@@](C)([C@H]4CC[C@](O)(CC)[C@H](C)O4)O3)O2)[C@H](C)C[C@@H]1C`?
Answer: IC50 (MDA-MB-231): 19.6 µM; IC50 (MCF7): 16.3 µM

Question: How did the IC50 (MDA-MB-231) turn out when `CC[C@@H](C(=O)[C@@H](C)[C@@H](O)[C@H](C)[C@@H]1O[C@@H]([C@@H](CC)C(=O)O)CC[C@@H]1C)[C@H]1O[C@]2(C=C[C@@H](OC(=O)Cn3cc(CCOC(=O)c4cn(CC(=O)O[C@@H]5C=C[C@]6(O[C@H]([C@@H](CC)C(=O)[C@@H](C)[C@@H](O)[C@H](C)[C@@H]7O[C@@H]([C@@H](CC)C(=O)O)CC[C@@H]7C)[C@@H](C)C[C@H]6C)O[C@@]56CC[C@@](C)([C@H]5CC[C@](O)(CC)[C@H](C)O5)O6)nn4)nn3)[C@]3(CC[C@@](C)([C@H]4CC[C@](O)(CC)[C@H](C)O4)O3)O2)[C@H](C)C[C@@H]1C` was run?
Answer: Its IC50 is 9.01 µM.

Question: And the IC50 (MCF7)?
Answer: Its IC50 is 0.71 µM.

Question: `CC[C@@H](C(=O)[C@@H](C)[C@@H](O)[C@H](C)[C@@H]1O[C@@H]([C@@H](CC)C(=O)OCc2cn(CCCC(=O)O)nn2)CC[C@@H]1C)[C@H]1O[C@]2(C=C[C@@H](O)[C@]3(CC[C@@](C)([C@H]4CC[C@](O)(CC)[C@H](C)O4)O3)O2)[C@H](C)C[C@@H]1C` was tested. Which IC50 (MDA-MB-231) did it give?
Answer: Its IC50 is 52.1 µM.

Question: And the IC50 (MCF7)?
Answer: Its IC50 is 41.2 µM.

Question: With `CC[C@@H](C(=O)[C@@H](C)[C@@H](O)[C@H](C)[C@@H]1O[C@@H]([C@@H](CC)C(=O)O)CC[C@@H]1C)[C@H]1O[C@]2(C=C[C@@H](OC(=O)Cn3cc(CCC(=O)O)nn3)[C@]3(CC[C@@](C)([C@H]4CC[C@](O)(CC)[C@H](C)O4)O3)O2)[C@H](C)C[C@@H]1C` as the compound, how does the IC50 (MDA-MB-231) read?
Answer: The IC50 was 3.13 µM.

Question: And the IC50 (MCF7)?
Answer: Its IC50 is 2.03 µM.

Question: Which results are given for `CC[C@@H](C(=O)[C@@H](C)[C@@H](O)[C@H](C)[C@@H]1O[C@@H]([C@@H](CC)C(=O)O)CC[C@@H]1C)[C@H]1O[C@]2(C=C[C@@H](OC(=O)Cn3cc(CO)nn3)[C@]3(CC[C@@](C)([C@H]4CC[C@](O)(CC)[C@H](C)O4)O3)O2)[C@H](C)C[C@@H]1C`?
Answer: IC50 (MDA-MB-231): 2.72 µM; IC50 (MCF7): 3.34 µM

Question: How did the IC50 (MDA-MB-231) turn out when `CC[C@@H](C(=O)[C@@H](C)[C@@H](O)[C@H](C)[C@@H]1O[C@@H]([C@@H](CC)C(=O)O)CC[C@@H]1C)[C@H]1O[C@]2(C=C[C@@H](OC(=O)Cn3cc(COCCOCc4cn(CC(=O)O[C@@H]5C=C[C@]6(O[C@H]([C@@H](CC)C(=O)[C@@H](C)[C@@H](O)[C@H](C)[C@@H]7O[C@@H]([C@@H](CC)C(=O)O)CC[C@@H]7C)[C@@H](C)C[C@H]6C)O[C@@]56CC[C@@](C)([C@H]5CC[C@](O)(CC)[C@H](C)O5)O6)nn4)nn3)[C@]3(CC[C@@](C)([C@H]4CC[C@](O)(CC)[C@H](C)O4)O3)O2)[C@H](C)C[C@@H]1C` was run?
Answer: The IC50 was 4.06 µM.

Question: What about the IC50 (MCF7) of the same compound?
Answer: The IC50 was 0.91 µM.

Question: Which results are given for `CC[C@@H](C(=O)[C@@H](C)[C@@H](O)[C@H](C)[C@@H]1O[C@@H]([C@@H](CC)C(=O)O)CC[C@@H]1C)[C@H]1O[C@]2(C=C[C@@H](OC(=O)Cn3cc(COCCOC(=O)c4cn(CC(=O)O[C@@H]5C=C[C@]6(O[C@H]([C@@H](CC)C(=O)[C@@H](C)[C@@H](O)[C@H](C)[C@@H]7O[C@@H]([C@@H](CC)C(=O)O)CC[C@@H]7C)[C@@H](C)C[C@H]6C)O[C@@]56CC[C@@](C)([C@H]5CC[C@](O)(CC)[C@H](C)O5)O6)nn4)nn3)[C@]3(CC[C@@](C)([C@H]4CC[C@](O)(CC)[C@H](C)O4)O3)O2)[C@H](C)C[C@@H]1C`?
Answer: IC50 (MDA-MB-231): 6.69 µM; IC50 (MCF7): 0.6 µM

Question: `CC[C@@H](C(=O)[C@@H](C)[C@@H](O)[C@H](C)[C@@H]1O[C@@H]([C@@H](CC)C(=O)O)CC[C@@H]1C)[C@H]1O[C@]2(C=C[C@@H](OC(=O)Cn3cc(COCCO)nn3)[C@]3(CC[C@@](C)([C@H]4CC[C@](O)(CC)[C@H](C)O4)O3)O2)[C@H](C)C[C@@H]1C` was tested. Which IC50 (MDA-MB-231) did it give?
Answer: The IC50 was 4.09 µM.

Question: What about the IC50 (MCF7) of the same compound?
Answer: Its IC50 is 1.23 µM.
